Experimental findings from patent US20240083857A1, “2-Methyl-Quinazolines” (Bayer Pharma Aktiengesellschaft, priority 2017, published 2024) are described below.

Test [1] has as its target human SOS1 (nucleotide exchange of K-Ras^G12C) (Homo sapiens, UniProt Q07889). The test is described as follows: Biochemical assay 2: K-Ras^G12C activation assay by hSOS1 at high GTP concentration (HTRF). The settings on record: high GTP; read-out: Assay 2 (KRAS-Activation by SOS high GTP) activity expressed as IC50. (Time-resolved FRET reads energy transfer from a long-lived donor to a nearby acceptor.)

The target of test [2] is human SOS1 (loading of human K-Ras^G12C-GDP with fluorescent GTP-analog) (Homo sapiens, UniProt Q07889). The test is described as follows: Biochemical assay 3: K-Ras^G12C activation assay by hSOS1 (HTRF). The settings on record: no GTP; for IC50: read-out: Assay 3 (KRAS-Activation by SOS no GTP) activity expressed as IC50.

Molecules are shown by their SMILES.

The term IC50 denotes the midpoint of a concentration-inhibition curve. As for `COc1cc2nc(C)nc(NC(C)c3ccc(-c4ccccc4CN4CCC4)s3)c2cc1OC` (stereo not drawn) [Example 317, N-[1-{5-[2-(azetidin-1-ylmethyl)phenyl]thiophen-2-yl}ethyl]-6,7-dimethoxy-2-methylquinazolin-4-amine], the results for the IC50 in test [1] and in test [2] were 62.7 nM and 88.4 nM, respectively.

In the case of `COc1cc2nc(C)nc(NC(C)c3ccc(-c4ccccc4CN4CCOCC4)s3)c2cc1OC` (stereo not drawn) [Example 311, 6,7-dimethoxy-2-methyl-N-[1-{5-[2-(morpholin-4-ylmethyl)phenyl]thiophen-2-yl}ethyl]quinazolin-4-amine], the IC50 in test [1] amounted to 513 nM; in test [2] it was 629 nM.

In the case of `COc1cc2nc(C)nc(NC(C)c3cc(-c4ccc(F)cc4CN)cs3)c2cc1OC` (stereo not drawn) [Example 269, N-[1-{4-[2-(aminomethyl)-4-fluorophenyl]thiophen-2-yl}ethyl]-6,7-dimethoxy-2-methylquinazolin-4-amine], the values for the IC50 in test [1] and in test [2] were 115 nM and 135 nM, respectively.

On to `COc1cc2nc(C)nc(NC(C)c3ccc(-c4ccc(F)cc4CNC(C)=O)s3)c2cc1OC` (stereo not drawn) [Example 307, N-[2-(5-{1-[(6,7-dimethoxy-2-methylquinazolin-4-yl)amino]ethyl}thiophen-2-yl)-5-fluorobenzyl]acetamide], for which the IC50 in test [1] worked out at 593 nM; in test [2], 780 nM.

On to `COc1cc2nc(C)nc(NC(C)c3ccc(-c4cc(Cl)ccc4CN)s3)c2cc1OC` (stereo not drawn) [Example 292, N-[1-{5-[2-(aminomethyl)-5-chlorophenyl]thiophen-2-yl}ethyl]-6,7-dimethoxy-2-methylquinazolin-4-amine], for which the IC50 is 38.7 nM in test [1] and 41.3 nM in test [2].

On to `COc1cc2nc(C)nc(NC(C)c3ccc(-c4ccccc4CN4CCCC(C(N)=O)C4)s3)c2cc1OC` (stereo not drawn) [Example 290, 1-[2-(5-{1-[(6,7-dimethoxy-2-methylquinazolin-4-yl)amino]ethyl}thiophen-2-yl)benzyl]piperidine-3-carboxamide], for which the IC50 was found to be 116 nM in test [1] and 159 nM in test [2].

Consider `COc1cc2nc(C)nc(NC(C)c3csc(-c4ccccc4CN)c3)c2cc1OC` (stereo not drawn) [Example 259, N-[1-{5-[2-(aminomethyl)phenyl]thiophen-3-yl}ethyl]-6,7-dimethoxy-2-methylquinazolin-4-amine], for which the IC50 came out at 435 nM in test [1] and 650 nM in test [2].

Consider `COc1cc2nc(C)nc(NC(C)c3cc(C)cc4[nH]ncc34)c2cc1OC` (stereo not drawn) [Example 16, 6,7-dimethoxy-2-methyl-N-[1-(6-methyl-1H-indazol-4-yl)ethyl]quinazolin-4-amine], for which the IC50 is 3020 nM in test [1] and 8170 nM in test [2].

On to `COc1cc2nc(C)nc(NC(C)c3ccc(-c4ccccc4CN[C@H]4CCN(C)C4=O)s3)c2cc1OC` (stereo partly drawn) [Example 309, (3S)-{[2-(5-{1-[(6,7-dimethoxy-2-methylquinazolin-4-yl)amino]ethyl}thiophen-2-yl)benzyl]amino}-1-methylpyrrolidin-2-one], for which the IC50 was 690 nM in test [1] and 880 nM in test [2].

`COc1cc2nc(C)nc(NC(C)c3cc(-c4ccccc4CN)cs3)c2cc1OC` (stereo not drawn) [Example 270, N-[1-{4-[2-(aminomethyl)phenyl]thiophen-2-yl}ethyl]-6,7-dimethoxy-2-methylquinazolin-4-amine]: the IC50 was determined as 82.2 nM in test [1] and 98 nM in test [2].

What is called inhibition is the relative decrease from the control value, in per cent. Turning to `COc1cc2nc(C)nc(NC(C)c3cc4ccccc4o3)c2cc1OC` (stereo not drawn) [Example 20, N-[1-(1-benzofuran-2-yl)ethyl]-6,7-dimethoxy-2-methylquinazolin-4-amine], in test [1], the IC50 stood at 8200 nM. For the same molecule, the inhibition at 20 µM in test [2] (read-out: Assay 3 (KRAS-Activation by SOS no GTP) activity expressed as % inhibition at 20 μM, at 20 μM) worked out at 41%.

In the case of `COc1cc2nc(C)nc(NC(C)c3ccc(-c4ccccc4CNCC(=O)N4CCOCC4)s3)c2cc1OC` (stereo not drawn) [Example 285, 2-{[2-(5-{1-[(6,7-dimethoxy-2-methylquinazolin-4-yl)amino]ethyl}thiophen-2-yl)benzyl]amino}-1-(morpholin-4-yl)ethanone], the results for the IC50 in test [1] and in test [2] were 158 nM and 161 nM, respectively.
